Experimental data: patent US7385041B2, “Dual functioning excipient for metal chelate contrast agents” (Bracco International B.V., priority 1990, dated 2008)

System: Charles River CD-1 mice
Test: Intravenous acute tolerance in mice (LD50)
Conditions: intravenous (tail vein) at 0.02 mL/g, CD-1 mice, 14 days observation, physiologic pH
Method: The relative toxicities of free metal, free ligand, metal chelate contrast agent and excipient of the present invention were determined by injecting samples of each into the tail vein of Charles River CD-1 mice (18-23 g, 25-35 days) at 0.02 mL/g. The observation period was 14 days.

| SMILES | LD50 [mmol/kg] |
| --- | --- |
| O=C(O)CN1CCN(CC(=O)O)CCN(CC(=O)O)CCN(CC(=O)O)CC1 [DOTA, 1,4,7,10-tetraazacyclododecane-N,N′N″,N″′-tetraacetic acid] | 0.18 |
| O=C([O-])CN1CCNCCN(CC(=O)[O-])CCN(CC(=O)[O-])CC1.[Gd+3] [Gd(DO3A)] | 5.7 |
| O=C([O-])CN1CCNCCN(CC(=O)[O-])CCN(CC(=O)[O-])CC1.O=C([O-])CN1CCNCCN(CC(=O)[O-])CCN(CC(=O)[O-])CC1.[Ca+2].[Ca+2].[Ca+2] [Ca[Ca(DO3A)]2, Calcium bis[1,4,7,10-tetraazacyclododecane-1,4,7-triacetatocalcium(II)]] | 1.6 |
| CC(O)CN1CCN(CC(=O)[O-])CCN(CC(=O)[O-])CCN(CC(=O)[O-])CC1.CC(O)CN1CCN(CC(=O)[O-])CCN(CC(=O)[O-])CCN(CC(=O)[O-])CC1.[Ca+2].[Ca+2].[Ca+2] (stereo not shown) [Ca[Ca(HP-DO3A)]2, Calcium bis[1,4,7-tris(carboxymethyl)-10-(2′-hydroxy)propyl-1,4,7,10-tetraazacyclododecanato-calcium(II)]] | 1.3 |
| [Gd+3].[OH-].[OH-].[OH-] [Gd(OH)3] | 0.1 |
| CC(O)CN1CCN(CC(=O)O)CCN(CC(=O)O)CCN(CC(=O)O)CC1.[Gd+3] (stereo not shown) [Gd(HP-DO3A), Gadolinium(III) 1,4,7-tris(carboxymethyl)-10-(2′-hydroxypropyl)-1,4,7,10-tetraazacyclododecane] | 10 |
| [Ca+2].[Cl-].[Cl-] [CaCl2] | 1.5 |

Same assay, conditions: mouse, in vivo, iv

| SMILES | LD50 [mmol/kg] |
| --- | --- |
| O=C(O)CN1CCNCCN(CC(=O)O)CCN(CC(=O)O)CC1 [DO3A, 1,4,7,10-tetraazacyclododecane-1,4,7-triacetic acid] | 0.12 |
| CC(O)CN1CCN(CC(=O)O)CCN(CC(=O)O)CCN(CC(=O)O)CC1 (stereo not shown) [HP-DO3A, 1,4,7-tris-(carboxymethyl)-10-(2′-hydroxypropyl)-1,4,7,10-tetraazacyclododecane] | 0.11 |

Same assay, conditions: summary of Table 1 data, intravenous in mice

| SMILES | Tolerance (in words) |
| --- | --- |
| O=C([O-])CN1CCNCCN(CC(=O)[O-])CCN(CC(=O)[O-])CC1.[Gd+3] [Gd(DO3A)] | highly tolerated |
